Laboratory results from patent US11970504B1, “2-benzo-[3,4-b] quinolino-{b,g]indeno [1′,2′:3,4] fluoreno-[1,2-d] Oxonine-5,11,16,21-tetraone as an antimicrobial compound” (KING FAISAL UNIVERSITY, priority 2023, dated 2024).

Legend:
Staphylococcus aureus = assay: Antimicrobial screening by agar dilution, Staphylococcus aureus; type: cell-based; details: after 10, 20, 40 and 60 minutes at all dilutions 1:100, 1:200, 1:400, 1:800
Protocol: (§1) The antibacterial properties of the synthesized compound 2-benzo-[3,4-b]quinolino-[b,g]indeno[1′,2′:3,4]fluoreno-[1,2-d]oxonine-5,11,16,21-tetraone were studied by the method of agar dilution. Test solutions of each compound was prepared in concentration of 1% using dimethylformamide as a solvent then they are diluted in physiological solution to obtain the final experimental dilutions 1:100, 1:200, 1:400, 1:800. The effect of these substances are compared with furacillin in a controllable study. The testing microbes used were gram positive bacteria Staphylococcus aureus, gram negative bacteria Pseudomonas aeruginosa and Escherichia co/i and Candida albicans fungus. The experiments used for this survey were meat-pentonlu agar (EPA) for cultivation of bacteria and Saburo environment for the fungus. Each experiment used 1 mL of test solution on each plate […]. Two drops of emulsified with microbes feel were added. All experimental samples were taken from the agar after 10, 20, 40, 60 minutes in the environment on the basis of Patrk planted. The bacteria were cultivated at a temperature of 37° C. for 1 day and the mushroom was kept in a thermostat for […] at a temperature of 28° C. Then results were checked.

Escherichia coli = assay: Antimicrobial screening by agar dilution, Escherichia coli; type: cell-based; details: after 10, 20, 40 and 60 minutes at all dilutions 1:100, 1:200, 1:400, 1:800
Protocol: as §1

Pseudomonas aeruginosa = assay: Antimicrobial screening by agar dilution, Pseudomonas aeruginosa; type: cell-based; details: after 10, 20, 40 and 60 minutes at all dilutions 1:100, 1:200, 1:400, 1:800
Protocol: as §1

Candida albicans = assay: Antimicrobial screening by agar dilution, Candida albicans; type: cell-based; details: after 10, 20, 40 and 60 minutes at all dilutions 1:100, 1:200, 1:400, 1:800
Protocol: as §1

- melting point: 251 °C
Compound: O=C1Oc2nc3ccccc3cc2-c2c(c3c4ccccc4c(=O)c3c3c2c(=O)c2ccccc23)C(=O)c2ccccc21 [2-benzo-[3,4-b]quinolino-[b,g]indeno[1′,2′:3,4]fluoreno-[1,2-d]oxonine-5,11,16,21-tetraone]
- inhibition activity (Staphylococcus aureus): highest inhibition activity
- inhibition activity (Escherichia coli): highest inhibition activity
- inhibition activity (Pseudomonas aeruginosa): highest inhibition activity
- inhibition activity (Candida albicans): highest inhibition activity
